Test results as given in US8574563B2 (Bristol-Myers Squibb Company, priority 2006, dated 2013).

Test system: HCV 1b-377-neo replicon cells
Test: HCV replicon assay, HCV 1b-377-neo replicon cells (1b FRET)
Type: cell-based, Hepatitis C virus genotype 1b
Settings: HCV 1b-377-neo replicon cells; HCV 1b genotype
Outline: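 Compounds were tested in genotype 1b subgenomic replicon cells carrying a neomycin marker, alongside a matched replicon line with an NS5A Y2065H substitution that confers resistance to a reference NS5A inhibitor.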

SMILES | EC50 range against HCV 1b (Table 2, Range)
CCN(CC)[C@@H](C(=O)N1CCC[C@H]1c1ncc(-c2ccc(-c3ccc(-c4cnc([C@@H]5CCCN5C(=O)[C@@H](C(C)C)N(CC)CC)[nH]4)cc3)cc2)[nH]1)C(C)C [Example M10, (2R,2′R)-1,1′-(4,4′-biphenyldiylbis(1H-imidazole-5,2-diyl(2S)-2,1-pyrrolidinediyl))bis(N,N-diethyl-3-methyl-1-oxo-2-butanamine)] | >A

Same assay, conditions: Hepatitis C virus, HCV 1b-377-neo replicon cells; HCV 1b genotype; read-out: EC50 range against HCV 1b (Table 2, Range)

SMILES | EC50 [nM]
CN(C)C(C(=O)N1CCC[C@H]1c1ncc(-c2ccc(-c3ccc(-c4cnc([C@@H]5CCCN5C(=O)[C@@H](c5ccccc5)N(C)C)[nH]4)cc3)cc2)[nH]1)c1ccc(Cl)nc1 (stereo partly drawn) [Example 94-44, 1-(6-chloro-3-pyridinyl)-2-((2S)-2-(5-(4′-(2-((2S)-1-((2R)-2-(dimethylamino)-2-phenylacetyl)-2-pyrrolidinyl)-1H-imidazol-5-yl)-4-biphenylyl)-1H-imidazol-2-yl)-1-pyrrolidinyl)-N,N-dimethyl-2-oxoethanamine] | 0.001 to 0.999
CCC(=O)N1CCC[C@H]1c1ncc(-c2ccc(-c3ccc(-c4cnc([C@@H]5CCCN5C(=O)CC)[nH]4)cc3)cc2)[nH]1 [Example 10, 5,5′-(4,4′-biphenyldiyl)bis(2-((2S)-1-propionyl-2-pyrrolidinyl)-1H-imidazole)] | 1 to 99
COC(=O)N[C@H](C(=O)N1[C@@H](C)CC[C@H]1c1ncc(-c2ccc(-c3ccc(-c4cnc([C@@H]5CC[C@H](C)N5C(=O)[C@@H](NC(=O)OC)C(C)C)[nH]4)cc3)cc2)[nH]1)C(C)C [Example M151, methyl ((1S)-1-(((2S,5S)-2-(4-(4′-(2-((2S,5S)-1-((2S)-2-((methoxycarbonyl)amino)-3-methylbutanoyl)-5-methyl-2-pyrrolidinyl)-1H-imidazol-4-yl)-4-biphenylyl)-1H-imidazol-2-yl)-5-methyl-1-pyrrolidinyl)carbonyl)-2-methylpropyl)carbamate] | 0.001 to 0.999
C[C@H](NC(=O)[C@@H](c1ccccc1)N(C)C)c1ncc(-c2ccc(-c3ccc(-c4cnc([C@@H]5CCCN5C(=O)[C@@H](c5ccccc5)N(C)C)[nH]4)nn3)cc2)[nH]1 [Example 152j-13, (2R)-2-(dimethylamino)-N-((1S)-1-(5-(4-(6-(2-((2S)-1-((2R)-2-(dimethylamino)-2-phenylacetyl)-2-pyrrolidinyl)-1H-imidazol-5-yl)-3-pyridazinyl)phenyl)-1H-imidazol-2-yl)ethyl)-2-phenylacetamide] | 1 to 99
Cc1nc([C@@H]2CCCN2C(=O)[C@@H](c2ccccc2)N(C)C)[nH]c1-c1ccc(-c2ccc(-c3nc([C@@H]4CCCN4C(=O)[C@@H](c4ccccc4)N(C)C)[nH]c3C)cc2)cc1 [Example E5g, (1R,1′R)-2,2′-(4,4′-biphenyldiylbis((4-methyl-1H-imidazole-5,2-diyl)(2S)-2,1-pyrrolidinediyl))bis(N,N-dimethyl-2-oxo-1-phenylethanamine)] | 0.001 to 0.999
CCN(CC)[C@H](C)C(=O)N1CCC[C@H]1c1ncc(-c2ccc(-c3ccc(-c4cnc([C@@H]5CCCN5C(=O)[C@@H](NC(=O)OC)C(C)C)[nH]4)cc3)cc2)[nH]1 [Example M70, methyl ((1S)-1-(((2S)-2-(5-(4′-(2-((2S)-1-(N,N-diethyl-D-alanyl)-2-pyrrolidinyl)-1H-imidazol-5-yl)-4-biphenylyl)-1H-imidazol-2-yl)-1-pyrrolidinyl)carbonyl)-2-methylpropyl)carbamate] | 1 to 99
COC(=O)N[C@H](C(=O)N1[C@@H]2C[C@@H]2C[C@H]1c1ncc(-c2ccc(-c3ccc(-c4cnc([C@@H]5C[C@H]6C[C@H]6N5C(C)=O)[nH]4)cc3)cc2)[nH]1)C(C)C [Example M138, methyl ((1S)-1-(((1R,3S,5R)-3-(4-(4′-(2-((1R,3S,5R)-2-acetyl-2-azabicyclo[3.1.0]hex-3-yl)-1H-imidazol-4-yl)-4-biphenylyl)-1H-imidazol-2-yl)-2-azabicyclo[3.1.0]hex-2-yl)carbonyl)-2-methylpropyl)carbamate] | 0.001 to 0.999
CN(C)[C@@H](C(=O)N1CCC[C@H]1c1ncc(-c2ccc(-c3ccc(-c4cnc([C@@H]5CCCN5C(=O)c5cscn5)[nH]4)cc3)cc2)[nH]1)c1ccccc1 [Example 94-42, (1R)-N,N-dimethyl-2-oxo-1-phenyl-2-((2S)-2-(5-(4′-(2-((2S)-1-(1,3-thiazol-4-ylcarbonyl)-2-pyrrolidinyl)-1H-imidazol-5-yl)-4-biphenylyl)-1H-imidazol-2-yl)-1-pyrrolidinyl)ethanamine] | 0.001 to 0.999
COC(=O)N[C@@H](C(=O)N1CCC[C@H]1c1ncc(-c2ccc(-c3ncc(-c4cnc([C@@H]5CCCN5C(=O)[C@H](NC(=O)OC)c5ccccc5)[nH]4)cn3)cc2)[nH]1)c1ccccc1 [Example 152j-2, methyl ((1R)-2-((2S)-2-(5-(2-(4-(2-((2S)-1-((2R)-2-((methoxycarbonyl)amino)-2-phenylacetyl)-2-pyrrolidinyl)-1H-imidazol-5-yl)phenyl)-5-pyrimidinyl)-1H-imidazol-2-yl)-1-pyrrolidinyl)-2-oxo-1-phenylethyl)carbamate] | 0.001 to 0.999
COC(=O)N[C@@H](C)CC(=O)N1CCC[C@H]1c1ncc(-c2ccc(-c3ccc(-c4cnc([C@@H]5CCCN5C(=O)C[C@H](C)NC(=O)OC)[nH]4)cc3)cc2)[nH]1 [cj-126, dimethyl (4,4′-biphenyldiylbis(1H-imidazole-5,2-diyl(2S)-2,1-pyrrolidinediyl((2S)-4-oxo-4,2-butanediyl)))biscarbamate] | 0.001 to 0.999
COC(=O)N[C@H]1CC[C@H](C(=O)N2CCC[C@H]2c2ncc(-c3ccc(-c4ccc(-c5cnc([C@@H]6CCCN6C(=O)[C@H]6CC[C@H](NC(=O)OC)CC6)[nH]5)cc4)cc3)[nH]2)CC1 [cj-151, dimethyl (4,4′-biphenyldiylbis(1H-imidazole-5,2-diyl(2S)-2,1-pyrrolidinediylcarbonyltrans-4,1-cyclohexanediyl))biscarbamate] | 1 to 99
COC(=O)N[C@@H](C(=O)N1CCC[C@H]1c1ncc(-c2ccc(-c3ccc(-c4cnc([C@@H]5CCCN5C(=O)[C@H](C)N(C)C)[nH]4)cc3)cc2)[nH]1)c1ccccc1 [Example 76, methyl ((1R)-2-((2S)-2-(5-(4′-(2-((2S)-1-(N,N-dimethyl-L-alanyl)-2-pyrrolidinyl)-1H-imidazol-5-yl)-4-biphenylyl)-1H-imidazol-2-yl)-1-pyrrolidinyl)-2-oxo-1-phenylethyl)carbamate] | 0.001 to 0.999
COC(=O)N[C@@H](C(=O)N1[C@@H]2C[C@@H]2C[C@H]1c1nc(-c2ccc(-c3ccc(-c4c[nH]c([C@@H]5C[C@H]6C[C@H]6N5C(=O)[C@H](NC(=O)OC)C(C)C)n4)cc3)cc2)c[nH]1)C(C)C [Example M136, methyl ((1R)-1-(((1R,3S,5R)-3-(4-(4′-(2-((1R,3S,5R)-2-((2R)-2-((methoxycarbonyl)amino)-3-methylbutanoyl)-2-azabicyclo[3.1.0]hex-3-yl)-1H-imidazol-4-yl)-4-biphenylyl)-1H-imidazol-2-yl)-2-azabicyclo[3.1.0]hex-2-yl)carbonyl)-2-methylpropyl)carbamate] | 1 to 99
COC(=O)N[C@@H](C(=O)N1CCC[C@H]1c1ncc(-c2ccc(-c3ccc(-c4cnc([C@@H]5CCCN5C(=O)[C@@H](c5ccccc5)N5CCC(C)(O)CC5)[nH]4)cc3)cc2)[nH]1)c1ccccc1 [Example 84-4, methyl ((1R)-2-((2S)-2-(5-(4′-(2-((2S)-1-((2R)-2-(4-hydroxy-4-methyl-1-piperidinyl)-2-phenylacetyl)-2-pyrrolidinyl)-1H-imidazol-5-yl)-4-biphenylyl)-1H-imidazol-2-yl)-1-pyrrolidinyl)-2-oxo-1-phenylethyl)carbamate] | 0.001 to 0.999
COC(=O)N[C@@H](Cc1ccccn1)C(=O)N1CCC[C@H]1c1ncc(-c2ccc(-c3ccc(-c4cnc([C@@H]5CCCN5C(=O)[C@@H](NC(=O)OC)[C@@H](C)OC)[nH]4)cc3)cc2)[nH]1 [cj-67] | 0.001 to 0.999
COC(=O)N[C@@H]1CCCC[C@@H]1C(=O)N1CCC[C@H]1c1ncc(-c2ccc(-c3ccc(-c4cnc([C@@H]5CCCN5C(=O)[C@H](NC(C)=O)c5ccccc5)[nH]4)cc3)cc2)[nH]1 [cj-98, methyl ((1R,2S)-2-(((2S)-2-(5-(4′-(2-((2S)-1-((2R)-2-acetamido-2-phenylacetyl)-2-pyrrolidinyl)-1H-imidazol-5-yl)-4-biphenylyl)-1H-imidazol-2-yl)-1-pyrrolidinyl)carbonyl)cyclohexyl)carbamate] | 0.001 to 0.999
COC(=O)N[C@@H](C(=O)N1CCC[C@H]1c1ncc(-c2ccc(-c3ccc(-c4cnc([C@@H]5CCCN5C(=O)C5(C(F)(F)F)CC5)[nH]4)cc3)cc2)[nH]1)c1ccccc1 [Example 84-32, methyl ((1R)-2-oxo-1-phenyl-2-((2S)-2-(5-(4′-(2-((2S)-1-((1-(trifluoromethyl)cyclopropyl)carbonyl)-2-pyrrolidinyl)-1H-imidazol-5-yl)-4-biphenylyl)-1H-imidazol-2-yl)-1-pyrrolidinyl)ethyl)carbamate] | 0.001 to 0.999
COC(=O)N[C@@H](C(=O)N1CCC[C@H]1c1ncc(-c2ccc(-c3ccc(-c4cnc([C@@H]5CCCN5C(=O)[C@@H](c5ccccc5)N(C)C)[nH]4)cc3C)cc2)[nH]1)c1ccccc1 [Example 126, methyl ((1R)-2-((2S)-2-(5-(4′-(2-((2S)-1-((2R)-2-(dimethylamino)-2-phenylacetyl)-2-pyrrolidinyl)-1H-imidazol-5-yl)-2′-methyl-4-biphenylyl)-1H-imidazol-2-yl)-1-pyrrolidinyl)-2-oxo-1-phenylethyl)carbamate] | 0.001 to 0.999
CCN(CC)C(C)C(=O)N1CCC[C@H]1c1nc(C(F)(F)F)c(-c2ccc(-c3ncc(-c4cnc([C@@H]5CCCN5C(=O)[C@@H](C)N(CC)CC)[nH]4)cn3)cc2)[nH]1 (stereo in doubt) [Example J51, (2R)-1-((2S)-2-(5-(4-(5-(2-((2S)-1-((2R)-2-(diethylamino)propanoyl)-2-pyrrolidinyl)-1H-imidazol-5-yl)-2-pyrimidinyl)phenyl)-4-(trifluoromethyl)-1H-imidazol-2-yl)-1-pyrrolidinyl)-N,N-diethyl-1-oxo-2-propanamine] | 1 to 99
